This assay concerns HBMEC (Human Brain Microvascular Endothelial Cell). As to the kind of experiment: Nitric oxide production in HBMEC, gintonin pretreatment before NOS inhibitor. Format: cell-based. The note with it: 100 uM synthase inhibitor, 1 h, vs DMSO only. How it is done: First of all, HBMEC (Human Brain Microvascular Endothelial Cell) or imHBMEC (immortalized Human Brain Microvascular Endothelial Cell) were cultured in an appropriate culture medium under air conditions of 37° C., 5% carbon dioxide and 95% relative humidity. When the cells reached 80 to 90% confluency (average ~2 days), 10 ug/mL of gintonin was first pretreated and incubated for 1 hour, and then, a nitric oxide synthase (NOS) inhibitor was treated and incubated for another hour, then, the effect of changes in nitric oxide (NO) production was investigated. Afterwards, the concentration of nitric oxide synthase inhibitor was treated at 100 and 300 uM.

The text below walks through data of US20260216280A1, “COMPOSITION FOR PREVENTING AND TREATING ISCHEMIC CEREBROVASCULAR DISEASE COMPRISING GINTONIN” (Dongguk University Industry-Academic Cooperation Foundation, priority 2022, published 2026).

Structures are written as SMILES.

As for `COC(=O)[C@@H](N)CCCNC(=N)N[N+](=O)[O-].Cl` [synthase inhibitor], the “reduction of nitric oxide (relative production)” value is “about 20%”.
